Test results as given in patent publication US11185488B2, “Skin external preparation composition for moisturizing skin containing 1,2,3,4,6-penta-O-galloyl-β-D-glucose” (AMOREPACIFIC CORPORATION, priority 2017, dated 2021).

Columns and labels:
Type in all cases: cell-based
filaggrin = assay: Gene expression level of filaggrin (RNA separation and RT-PCR); details: neonatal keratinocytes, 1 ppm, 2 days; for Increase in filaggrin expression(%): corrected to RPL13A
Method: Neonatal keratinocytes (obtained from Lonza) was dispensed into a 60 mm cell culture dish at a density of 1.25×10^6 cells/dish using KGM medium, and then cultured at 37° C. in a 5% CO2 incubator up to about 80% confluency. Then, eight compounds including PGG from soybean, green tea, ginseng, and other natural products were selected as test substances (Table 1), and the cells were treated with each of these compounds at 1 ppm and cultured for 2 days. After the culture, the medium was removed, and 1 ml of Trizol (Invitrogen) was added, and mRNA was isolated according to an RNA isolation method of Invitrogen. mRNA was quantified at 260 nm using an ultraviolet detector (Hewlett Packard), and RT-PCR (Reverse Transcription-Polymerase Chain Reaction) was performed. For genetic analysis of each sample, correction was performed based on the complementary gene, RPL13A, and the expression level of filaggrin for each sample is shown in Table 1 below.

Neonatal keratinocytes = assay: Evaluation of cytotoxicity of PGG (cell viability); details: PGG 0, 1, 2, 4 ppm, cultured 4 days, FIG. 1
Method: Neonatal keratinocytes (obtained from Lonza) was dispensed into a 60 mm cell culture dish at a density of 1.25×10^6 cells/dish using KGM medium, and then cultured at 37° C. in a 5% CO2 incubator up to about 80% confluency. Then, the cells were treated with PGG at concentrations of 0 ppm, 1 ppm, 2 ppm, and 4 ppm, cultured for 4 days, and then the viability of the cells was confirmed.

involucrin (IVL) = assay: Gene increase experiment for involucrin (IVL) (RNA isolation and RT-PCR); details: keratinocytes, 4 days, corrected to RPLP0, FIG. 2
Method: (§1) Neonatal keratinocytes was dispensed into a 60 mm cell culture dish at a density of 1.25×10^6 cells/dish using KGM medium, and then cultured at 37° C. in a 5% CO2 incubator up to about 80% confluency. Then, the keratinocytes were treated with 0.2 ppm or 1 ppm of PGG, cultured for 4 days. After the culture, the medium was removed and 1 ml of Trizol (Invitrogen) was added thereto, and mRNA was isolated according to the RNA isolation method of Invitrogen. After quantifying mRNA at 260 nm using a CV detector (HEWLETT PACKARD), RT-PCR (Reverse transcription-polymerase chain reaction) was performed by using the primers of LOR and IVL (LOR-HS01894962_s1, IVL HS00846307_s1, respectively, both of which were obtained from Life Technologies). For genetic analysis of each sample, the correction was performed based on the complementary gene, RPLP0, and the results are shown in Table 2 below.

loricrin (LOR) = assay: Gene increase experiment for loricrin (LOR) (RNA isolation and RT-PCR); details: keratinocytes, 4 days, corrected to RPLP0, FIG. 2
Method: as §1

| SMILES | Increase in filaggrin expression(%) (filaggrin) | other results |
| --- | --- | --- |
| C[C@@]12C[C@@]3(O)O[C@@H](O1)[C@]1(COC(=O)c4ccccc4)[C@H]3C[C@@]12O[C@@H]1O[C@H](CO)[C@@H](O)[C@H](O)[C@H]1O [Paeoniflorin] | 116% |  |
| COc1cc([C@H]2OC[C@H]3[C@@H]2CO[C@@H]3c2cc(OC)c(O)c(OC)c2)cc(OC)c1O [Syringaresinol] | 103% |  |
| O=c1c(O[C@@H]2O[C@H](CO)[C@@H](O)[C@H](O)[C@H]2O)c(-c2ccc(O)cc2)oc2cc(O)cc(O)c12 [Astragalin] | 105% |  |
| O=c1c(-c2ccc(O)cc2)coc2cc(O)c(O)cc12 [6,7,4′-trihydroxyisoflavone] | 103% |  |
| O=c1c(-c2ccc(O)c(O)c2)coc2cc(O)ccc12 [7,3′,4′-trihydroxyisoflavone] | 110% |  |
| Oc1cc(O)c2c(c1)O[C@H](c1ccc(O)c(O)c1)[C@H](O)C2 [(−)-Epicatechin(EC), (−)-Epicatechin] | 108% |  |
| C[C@]12C[C@@H](O)[C@@H]3C[C@@]1(O[C@@H]1O[C@H](CO)[C@@H](O)[C@H](O)[C@H]1O)[C@@]3(COC(=O)c1ccccc1)C(=O)O2 [Albiflorin] | 107% |  |
| O=C(OC[C@H]1O[C@@H](OC(=O)c2cc(O)c(O)c(O)c2)[C@H](OC(=O)c2cc(O)c(O)c(O)c2)[C@@H](OC(=O)c2cc(O)c(O)c(O)c2)[C@@H]1OC(=O)c1cc(O)c(O)c(O)c1)c1cc(O)c(O)c(O)c1 [PGG, 1,2,3,4,6-penta-O-galloyl-β-D-glucose] | 229% | cell viability (Neonatal keratinocytes): no significant difference in cell viability; rate of increase in the expression of filaggrin versus control group (filaggrin): more than 2 times; expression level of involucrin gene compared to control group (involucrin (IVL); 0.2 ppm): three-fold or more increase; increase of involucrin gene compared to control group (involucrin (IVL); 1 ppm): 5 times; expression level of loricrin gene compared to control group (loricrin (LOR); 0.2 ppm): almost no difference compared to the control group; increase of loricrin gene compared to control group (loricrin (LOR); 1 ppm): ≥ 2 times |
